{
  "source": "patent US10030016B2",
  "about": "(Sunesis Pharmaceuticals, Inc., priority 2009, dated 2018)",
  "key": {"[1]": {"tested_on": "phospho-akt (Thr308) in PC-3 cells", "assay": "Inhibition of phospho-akt (Thr308) in PC-3 cells, MSD phospho-akt 308 ELISA kit", "type": "cell-based", "conditions": "Homo sapiens, 2 hours, no serum, read-out: EC50", "protocol": "PC-3 cells were harvested by trypsin and counted. Cells were plated in coated 96-well flat bottom plates (plate 15,000 cells/well in 100 ul growth media (10% FBS, 1× pen-strep) an place in an incubator overnight.\nSubject inhibitors were stocked at 50 mM, then diluted to 30 mM (4.8 μl cpd plus […] DMSO) in 100% DMSO. Three-fold dilutions were performed from 30 mM stock. (4 μl into 8 ul 100% DMSO). Aliquots of 1.0 μl of inhibitor solution were transferred into SF Medium (using deep well block).\nControl wells were prepared as follows. For DMSO high controls, 1.0 μl of 100% DMSO was added into 1.0 ml SF. For low controls for PC-3 cells, 5 μM of Wortmannin (10 μl of 1 mM Wortmannin stock was added into 2 ml SF Medium. The supernatant media was removed and the plate was blotted. 100 μl of controls/media or compound/media were added to cells and placed in incubator for 2 hours. The supernatant media was removed and the plate was blotted. 55 μl of the MSD complete lysis buffer was added (10 mls Tris Lysis buffer, 200 ul protease inhibitor, 100 ul phosphatase inhibitor 1, and 100 ul phosphatase inhibitor II). The plate was placed on a plate shaker for 60 mins at 4 deg.\nMSD plates were blocked for 1 hour by adding 150 μl of Blocking Solution (3% BSA) to each well. The MSD plates were washed 4× with TBST, and 50 μl lysates were transferred to MSD plate and place on plate shaker shake at 4 degrees O/N, light shaking (speed 3.5). The plate was washed 4× with TBST.\n25 μl of Ab detection solution was added to each well. The plate was sealed and incubated 1 hr RT, light shaking (speed 3.5). The plate was washed 4 times with TBST. 150 μl of Read Buffer was added (5 mls 4×MSD Read Buffer+15 mls water). Finally the plate was read immediately on the MSD plate reader."}, "[2]": {"target": "PDK1 (Homo sapiens (Human), UniProt O15530)", "sequence (O15530 51-359)": "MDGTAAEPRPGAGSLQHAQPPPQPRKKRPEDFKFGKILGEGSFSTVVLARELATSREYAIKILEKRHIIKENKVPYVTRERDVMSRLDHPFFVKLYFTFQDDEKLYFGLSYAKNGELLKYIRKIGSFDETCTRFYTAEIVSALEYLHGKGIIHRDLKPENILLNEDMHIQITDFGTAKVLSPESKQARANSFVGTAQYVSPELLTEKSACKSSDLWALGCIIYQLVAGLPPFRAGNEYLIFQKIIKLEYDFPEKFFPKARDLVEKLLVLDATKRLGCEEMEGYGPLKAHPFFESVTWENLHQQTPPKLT", "assay": "PDK1 kinase assay (coupled PDK1/AKT/FAM-crosstide assay, IMAP fluorescence polarization)", "type": "biochemical", "protocol": "A PDK1 kinase assay was performed as follows. PDK1 (amino acids 51-359) and AKT2 (amino acids 140-467 fused to PIFtide, amino acids […]) were expressed as N-terminally tagged GST fusion proteins in insect cells and purified to homogeneity. Enzyme activity was determined in a coupled PDK1/AKT/FAM-crosstide assay and phosphorylation of FAM-crosstide was determined by standard IMAP protocol (Molecular Devices). For inhibition studies, compounds were titrated 4-fold in DMSO and diluted 40-fold into assay buffer (10 mM Tris HCl pH7.2; 10 mM MgCl2; 0.01% Triton X-100; 1 mM DTT) containing PDK1, AKT2, and FAM-crosstide (final concentrations: 0.75 nM PDK1, 10 nM unphosphorylated AKT2, and 100 nM crosstide substrate). The kinase reaction was initiated by adding ATP to a final concentration of 40 μM of PDK1 and incubated at 25° C. for 30 min. To detect assay product, the kinase reaction was combined with Progressive Binding Solution (1:600 Progressive Binding Reagent, 50% Buffer A, 50% Buffer B, Molecular Devices) in a 1:3 ratio. The mixture was incubated for 2 hours at 25° C. and the plate was scanned on an Analyst AD with excitation at 485 nm and emission at 530 nm. The fluorescence polarization value “P” is defined by the equation below. The value “mP” is generated by multiplying the P value for each reaction well by a factor of 1000. The value “ΔmP” for each well is the mP value for that well minus the mP value for the average negative control. P=(Fpar−Fperp)/(Fpar+Fperp) Eq.:\nWhere “par” is fluorescence intensity parallel to the excitation plane; and “perp” is fluorescence intensity perpendicular to the excitation plane. ΔmP values were plotted as a function of compound concentration and the data were analyzed with a 4-parameter fit using GraphPad Prism software."}, "[3]": {"conditions": "inhibition of P308 Akt in PC-3 cells, MSD"}, "[4]": {"conditions": "inhibition of phospo-PDK1 in vitro"}, "[5]": {"conditions": "inhibition of P308 Akt in PC-3 cells using MSD"}},
  "note": "Read-outs that look alike come from different tables or passages of the source.",
  "data": [
    {"smiles": "Nc1ncnc2ccc(-c3ccc(CNc4ncc(S(=O)(=O)NCc5ccccc5)cc4C(=O)NCc4ccc(F)c(F)c4)s3)cc12", "note": "[Example 8.6.7, 2-(((5-(4-aminoquinazolin-6-yl)thiophen-2-yl)methyl)amino)-5-(N-benzylsulfamoyl)-N-(3,4-difluorobenzyl) nicotinamide]", "values": [
      {"measurement": "EC50", "setting": "[1]; [3]", "result": "> 10", "unit": "µM"},
      {"measurement": "IC50", "setting": "[2]; [4]", "result": "0.1 to 1", "unit": "µM"}
    ]},
    {"smiles": "Nc1ncnc2ccc(-c3ccc(CNc4ncc(C(F)(F)F)nc4C(=O)NCc4ccc(F)c(F)c4)s3)cc12", "note": "[Example 10.10, 3-(((5-(4-aminoquinazolin-6-yl)thiophen-2-yl)methyl)amino)-N-(3,4-difluorobenzyl)-6-(trifluoromethyl)pyrazine-2-carboxamide]", "values": [
      {"measurement": "EC50", "setting": "[1]; [3]", "result": "> 10", "unit": "µM"},
      {"measurement": "IC50", "setting": "[2]; [4]", "result": "< 0.1", "unit": "µM"}
    ]},
    {"smiles": "C[C@H](NC(=O)c1cccnc1NCc1ccc(-c2ccc3ncnc(N4CC(C)(O)C4)c3c2)s1)c1ccc(F)c(F)c1", "note": "[Example 4.37]", "values": [
      {"measurement": "EC50", "setting": "[1]; [3]", "result": "1 to 10", "unit": "µM"},
      {"measurement": "IC50", "setting": "[2]; [4]", "result": "0.1 to 1", "unit": "µM"}
    ]},
    {"smiles": "C[C@H](NC(=O)c1cc(C#N)cnc1NCc1ccc(-c2cnc(N)c(O[C@H]3CCC[C@@H]3N)n2)cc1)c1ccc(F)cc1", "note": "[Example 168, 2-{4-[5-Amino-6-((1S,2S)-2-amino-cyclopentyloxy)-pyrazin-2-yl]-benzylamino}-5-cyano-N-[(S)-1-(4-fluoro-phenyl)-ethyl]-nicotinamide]", "values": [
      {"measurement": "EC50", "setting": "[1]; [5]", "result": "1 to 10", "unit": "µM"},
      {"measurement": "IC50", "setting": "[2]; inhibition of PDK1 in vitro", "result": "< 0.1", "unit": "µM"}
    ]},
    {"smiles": "N#Cc1cnc(NCc2ccc(Oc3cc(N)ncn3)cc2)c(C(=O)NCc2ccc(F)c(F)c2)c1", "note": "[Example 314, 2-(4-(6-aminopyrimidin-4-yloxy)benzylamino)-5-cyano-N-(3,4-difluorobenzyl)nicotinamide]", "values": [
      {"measurement": "EC50", "setting": "[1]; [5]", "result": "> 10", "unit": "µM"},
      {"measurement": "IC50", "setting": "[2]; inhibition of PDK1 in vitro", "result": "1 to 5", "unit": "µM"}
    ]},
    {"smiles": "C[C@@H](Nc1ncc(C(F)(F)F)cc1C(=O)Nc1ccc(F)cc1)c1ccc(-c2cn(C)c3ncnc(N)c23)cc1", "note": "[Example 403, (R)-2-(1-(4-(4-amino-7-methyl-7H-pyrrolo[2,3-d]pyrimidin-5-yl)phenyl)ethylamino)-N-(4-fluoro-phenyl)-5-(trifluoromethyl) nicotinamide]", "values": [
      {"measurement": "EC50", "setting": "[1]; [5]", "result": "1 to 10", "unit": "µM"},
      {"measurement": "IC50", "setting": "[2]; inhibition of PDK1 in vitro", "result": "< 0.1", "unit": "µM"}
    ]},
    {"smiles": "C[C@H](NC(=O)c1cc(C#N)cnc1NCc1ccc(-c2cnc(N)c(O[C@@H]3CCNC3)n2)cc1)c1ccc(F)cc1", "note": "[Example 160, 2-{4-[5-Amino-6-((R)-pyrrolidin-3-yloxy)-pyrazin-2-yl]-benzylamino}-5-cyano-N-[(S)-1-(4-fluoro-phenyl)-ethyl]-nicotinamide]", "values": [
      {"measurement": "EC50", "setting": "[1]; [5]", "result": "< 1", "unit": "µM"},
      {"measurement": "IC50", "setting": "[2]; inhibition of PDK1 in vitro", "result": "< 0.1", "unit": "µM"}
    ]},
    {"smiles": "C[C@H](NC(=O)c1nc(C#N)cnc1NCc1ccc(-c2cnc(N)c(-c3cccc(O)c3)n2)cc1)c1ccc(F)c(F)c1", "note": "[Example 235, 3-{4-[5-Amino-6-(3-hydroxy-phenyl)-pyrazin-2-yl]-benzylamino}-6-cyano-pyrazine-2-carboxylic acid [(S)-1-(3,4-difluoro-phenyl)-ethyl]-amide]", "values": [
      {"measurement": "EC50", "setting": "[1]; [5]", "result": "1 to 10", "unit": "µM"},
      {"measurement": "IC50", "setting": "[2]; inhibition of PDK1 in vitro", "result": "< 0.1", "unit": "µM"}
    ]},
    {"smiles": "NCCOc1nc(-c2ccc(CNc3ncc(C(F)(F)F)cc3C(=O)Nc3ccc(F)cc3)cc2)cnc1N", "note": "[Example 166, 2-{4-[5-Amino-6-(2-amino-ethoxy)-pyrazin-2-yl]-benzylamino}-N-(4-fluoro-phenyl)-5-trifluoromethyl-nicotinamide]", "values": [
      {"measurement": "EC50", "setting": "[1]; [5]", "result": "< 1", "unit": "µM"},
      {"measurement": "IC50", "setting": "[2]; inhibition of PDK1 in vitro", "result": "< 0.1", "unit": "µM"}
    ]},
    {"smiles": "C[C@H](NC(=O)c1cccnc1NCc1ccc(-c2cnc3[nH]c(=O)[nH]c3c2)cc1)c1ccc(F)c(F)c1", "note": "[Example 366, (S)-N-(1-(3,4-difluorophenyl)ethyl)-2-(4-(2-oxo-2,3-dihydro-1H-imidazo[4,5-b]pyridin-6-yl)benzylamino) nicotinamide]", "values": [
      {"measurement": "EC50", "setting": "[1]; [5]", "result": "< 1", "unit": "µM"},
      {"measurement": "IC50", "setting": "[2]; inhibition of PDK1 in vitro", "result": "< 0.1", "unit": "µM"}
    ]},
    {"smiles": "CC(C)Oc1cc(CNc2ncccc2C(=O)NC(C)(C)C)cc(-c2c[nH]c3ncc(C(=O)NC4CC4)cc23)c1", "note": "[Example 4.1.15, 3-[3-({[(3-tert-butylcarbamoyl)pyridin-2-yl]amino}methyl)-5-(propan-2-yloxy)phenyl]-N-cyclopropyl-1H-pyrrolo[2,3-b] pyridine-5-carboxamide]", "values": [
      {"measurement": "EC50", "setting": "[1]; [3]", "result": "1 to 10", "unit": "µM"},
      {"measurement": "IC50", "setting": "[2]; [4]", "result": "> 5", "unit": "µM"}
    ]}
  ]
}
